{"source": "patent US20250009748A1", "about": "(NAVIRE PHARMA, INC., priority 2021, published 2025)", "key": {"[1]": {"experiment": "Tolerability (body weight, mouse loss) in NCI-H358 xenograft study (Example 1)", "settings": "for Mean body weight change: Day 29, n = 10; for Mouse loss and observations: n = 8 mice/group", "experimental": "Dosing started ˜2 weeks post the subcutaneous implantation of the tumor cells. […] Tumor volume was measured twice a week. The body weight and tumor volume were captured in the StudyDirector software version 3.1.399.19 (StudyLog).\nData were analyzed using Microsoft Excel and GraphPad Prism 8.0. Day 0 was the day before treatment started.\nBWi and BW0 are the body weight of an individual mouse on measurement day I and on day 0, respectively."}, "[2]": {"experiment": "Tolerability / body weight in NCI-H2122 study (Example 2)", "procedure": "Body weights (BW) were also recorded twice weekly. […] Mean body weight changes (±SEM) were recorded for group.\nExperimental Endpoints. Animal health was monitored at least twice weekly through behavioral observations and weight checks. After tumor inoculation, the animals were checked daily for morbidity and mortality. During routine monitoring, the animals were checked for any effects of tumor growth and treatments on behavior such as mobility, food and water consumption, body weight gain/loss, eye/hair matting, and any other abnormalities.\nStudy endpoint was defined when animals reached one of the following criteria for euthanasia: ≥20% body weight loss at any time versus day 1, ≥15% body weight loss for 72 hours versus day 1, individual tumor volume of ≥3000 mm^3, or all mice in each group were euthanized when the mean tumor volume reached ≥2000 mm^3."}, "[3]": {"experiment": "LC-MS/MS plasma concentration of formula (10b) and Compound A at end of efficacy study (Example 1)", "assay_type": "in vivo, NOD/SCID mice", "settings": "for concentration at 8 h / concentration at 2 h: NOD/SCID, mouse, plasma, oral; for concentration at 2 h: Compound A Plasma concentration", "description": "Blood collection for pharmacokinetic analysis. Blood from live animals for pharmacokinetic (PK) analyses was obtained via the retro-orbital sinus. The mouse was grasped firmly behind the ears and rotated slightly to one side so that a disposable, sterile microcapillary tube could be inserted behind the eyeball and gently rotated to break the sinus cavity. Blood flowed through the capillary tube, directly into a K2 EDTA tube (Jiangsu KangJian Medical Apparatus Corporation #044022) to a volume of 100 μL. Blood in the tube was inverted several times to distribute the EDTA evenly. To separate plasma, tubes were centrifuged in a bench top centrifuge (Eppendorf, Model 5424R) for 5 minutes at 8000 rpm without braking. The supernatant (plasma) was carefully transferred to a microcentrifuge tube and placed onto dry ice prior to storage at −80° C.\nFor plasma sample analysis, 20 μL of each sample was precipitated with 200 μL of acetonitrile containing Glipizide (100 ng/mL) as an internal standard. This suspension was vortexed for 1 min and centrifuged at 4,000 rpm for 10 min, after which 80 μL of the extract was aliquoted for LC-MS/MS analysis. LC-MS/MS analysis was conducted on a Shimadzu Nexera UHPLC system coupled with a Sciex 6500 TQ-S triple quadrupole mass spectrometer (MS/MS) operated at the positive mode (ESI+). […] The injection volume was 2 μL. The LC mobile phase A was 0.025% formic acid-water containing 1 mM ammonium acetate and B was 100% methanol containing 5 mM ammonium acetate. The gradient (% B) was 2% (0-0.4 min), 2-65% ([…]), 65-90% (0.7 to 1.3 min), 90% (1.3-1.9 min), 90-2% (1.9 to 1.91 min), 2% (1.91-2.5 min). The flow rate was 0.6 mL/min. The column temperature was 60° C."}, "[4]": {"tested_on": "NCI-H358 subcutaneous cell line-derived tumors (NSCLC, KRAS G12C)", "experiment": "NCI-H358 subcutaneous cell line-derived xenograft, formula (10b) and sotorasib (Example 2)", "assay_type": "in vivo, NOD/SCID mice", "settings": "Day 29, n = 10; for Mean Tumor REG: Formula (10b) 100 mg/kg QD PO", "description": "(§1) Tumor Cell Line Culture. […] Passage 9 NCI-H358 cells were thawed and expanded, and passage 13 cells were harvested for inoculations. […] Passage 6 NCI-H2122 cells were thawed and expanded, and passage 14 cells were harvested for inoculations.\n(§2) Animal Inoculations and Randomization. All experiments were reviewed and approved by the Crown Bioscience, Inc., Institutional Animal Care and Use Committee (IACUC) prior to execution and performed in accordance with the regulations of the Association for Assessment and Accreditation of Laboratory Animal Care (AAALAC). […] Mice were randomized into four groups (10 mice/group) by tumor volume (size mm^3) 13 days post cell inoculation when the mean tumor volume was 160 mm^3. […] Mice were randomized into four groups (10 mice/group) by tumor volume (size mm^3) 9 days post cell inoculation when the mean tumor volume was 180 mm^3.\n(§3) Tumor and Body Weight Measurements. […] Dosing as well as tumor and body weight measurements were conducted in a Laminar flow cabinet.\n(§4) Statistical analyses. Statistical analyses were performed with GraphPad Prism software (version 9). For statistical analyses comparing the vehicle group to all other groups, two-way repeated-measures analysis of variance (ANOVA) followed by post hoc Tukey's multiple comparisons test of the means was applied over the indicated number of days. For statistical analyses comparing the monotherapy and combination groups, two-way repeated-measures ANOVA was performed between each monotherapy group mean and combination group mean over the number of indicated days. A p value of less than 0.05 was considered statistically significant.\nFemale NOD/SCID mice were implanted subcutaneously with NSCLC NCI-H358 tumor cells. […] Mouse tumor volumes were measured twice weekly until day 34 and results are shown through day 29."}, "[5]": {"tested_on": "NCI-H358 subcutaneous tumors (human NSCLC, KRAS G12C)", "experiment": "NCI-H358 subcutaneous xenograft efficacy study, formula (10b) and Compound A (Example 1)", "assay_type": "in vivo, NOD/SCID mice", "settings": "for Day 21 TGI: n = 8", "description": "Cell lines. The NCI-H358 cell line was purchased from ATCC. It is a human NSCLC cell line, harboring heterozygous mutation of KRAS G12C.\nTest animals. Female NOD/SCID mice (Beijing Anikeeper Biotech Co., Ltd) were utilized in this experiment. Animals were 6˜8 weeks of age at the time of xenograft implantation. The protocol and any amendment(s) or procedures involving the care and use of animals in this study was reviewed and approved by the Institutional Animal Care and Use Committee (IACUC) of Crown Bioscience Ltd. prior to execution. During the study, the care and use of animals was conducted in accordance with the regulations of the Association for Assessment and Accreditation of Laboratory Animal Care (AAALAC).\nIn vivo modeling, treatment and data analysis.\nWhen the average tumor volume reached 250 mm^3, mice were randomized into groups of 8 based on both tumor volume and body weight.\nTumor volume was measured twice a week.\nDay 0 was the day before treatment started.\nTi and Ci are the mean tumor volumes of the treatment and vehicle groups on the measurement day, respectively; C0 is the mean tumor volume of the vehicle group on day 0.\nTumor volume was monitored bi-weekly by caliper and body weights were recorded. Data presented in FIGS. 1A-1E represent mean±SEM, and N=8 mice/group for FIGS. 1B-1E and N=10 mice/group for FIG. 1A."}, "[6]": {"tested_on": "NCI-H2122 subcutaneous cell line-derived tumors (NSCLC, KRAS G12C, KEAP1, STK11)", "experiment": "NCI-H2122 subcutaneous cell line-derived xenograft, formula (10b) and sotorasib (Example 2)", "assay_type": "in vivo, BALB/c nude mice", "settings": "Day 21, n = 10; for TGI: Formula (10b) 100 mg/kg QD PO", "description": "as §1, §2, §3, §4"}}, "note": "“Also recorded” adds a separate entry of the source."}
{"smiles": "Cc1c(N2CCC3(CC2)CO[C@@H](C)[C@H]3N)nc(C)n(-c2cccc(Cl)c2Cl)c1=O", "note": "(atropisomer, axis not shown; (Ra)) [Formula (10b), 6-((3S,4S)-4-amino-3-methyl-2-oxa-8-azaspiro[4.5]decan-8-yl)-3-(Ra)-(2,3-dichlorophenyl)-2,5-dimethylpyrimidin-4(3H)-one]", "values": [{"measurement": "Mean body weight change", "setting": "[1]; Formula (10b) 100 mg/kg QD", "value": "−6.5", "unit": "%"}, {"measurement": "Mouse loss and observations", "setting": "[1]; Formula (10b) 50 mg/kg QD, each event = one mouse, BWL = body weight loss", "value": "Day 3 (BWL); also recorded: Day 12 (BWL); also recorded: Day 19 (BWL)"}, {"measurement": "Mouse loss and observations", "setting": "[1]; Formula (10b) 100 mg/kg QD, each event = one mouse", "value": "Day 18 (Found dead); also recorded: Day 21 (Found dead)"}, {"measurement": "body weight loss", "setting": "[2]; formula (10b) 100 mg/kg QD monotherapy, several mice, group placed on diet gel day 11-21", "value": "over 10%"}, {"measurement": "Formula (10b) Plasma concentration", "setting": "[3]; 8 hours after final dose of formula (10b), Formula (10b) 50 mg/kg QD, mean ± SD, N = 4", "value": "4.44 ± 1.05", "unit": "µM"}, {"measurement": "Formula (10b) Plasma concentration", "setting": "[3]; 8 hours after final dose of formula (10b), Formula (10b) 100 mg/kg QD, mean ± SD, N = 4", "value": "7.54 ± 1.60", "unit": "µM"}, {"measurement": "Compound A Plasma concentration", "setting": "[3]; Formula (10b) 50 mg/kg QD alone, BQL = below quantitation limit (3 nM)", "value": "BQL"}, {"measurement": "Compound A Plasma concentration", "setting": "[3]; Formula (10b) 100 mg/kg QD alone, BQL = below quantitation limit (3 nM)", "value": "BQL"}, {"measurement": "concentration at 8 h", "setting": "[3]; 50 mg/kg, 8 hours after final dose of formula (10b), Formula (10b) 50 mg/kg QD, mean ± SD, N = 4", "value": 4.4, "unit": "µM"}, {"measurement": "concentration at 8 h", "setting": "[3]; 100 mg/kg, 8 hours after final dose of formula (10b), Formula (10b) 100 mg/kg QD, mean ± SD, N = 4", "value": 7.5, "unit": "µM"}, {"measurement": "Mean Tumor Volume (±SEM)", "setting": "[4]; Formula (10b) 100 mg/kg QD PO day 1-28", "value": "138 (±17) mm^3"}, {"measurement": "Mean Tumor REG", "setting": "[4]", "value": 14, "unit": "%"}, {"measurement": "Mean Tumor REG", "setting": "[4]; listed as formula (10b)", "value": 14, "unit": "%"}, {"measurement": "Mean tumor regression", "setting": "[5]; Day 29, Formula (10b) 100 mg/kg QD PO, n = 10, FIG. 1A", "value": 14, "unit": "%"}, {"measurement": "Number of regressions", "setting": "[5]; Day 29, Formula (10b) 100 mg/kg QD, n = 10", "value": "8/10"}, {"measurement": "Day 21 TGI", "setting": "[5]; Formula (10b) 50 mg/kg QD PO", "value": 46, "unit": "%"}, {"measurement": "Day 21 TGI", "setting": "[5]; Formula (10b) 50 mg/kg QD PO, listed as formula (10b)", "value": 46, "unit": "%"}, {"measurement": "Day 21 TGI", "setting": "[5]; Formula (10b) 100 mg/kg QD PO", "value": 89, "unit": "%"}, {"measurement": "Day 21 TGI", "setting": "[5]; Formula (10b) 100 mg/kg QD PO, listed as formula (10b)", "value": 89, "unit": "%"}, {"measurement": "effect on growth of NCI-H358 tumors (in words)", "setting": "[5]; formula (10b) monotherapy at 100 mg/kg QD", "value": "approximately tumor stasis"}, {"measurement": "Mean Tumor Volume (±SEM)", "setting": "[6]; Formula (10b) 100 mg/kg QD PO day 1-21", "value": "590 (±48) mm^3"}, {"measurement": "TGI", "setting": "[6]", "value": 58, "unit": "%"}, {"measurement": "TGI", "setting": "[6]; listed as formula (10b)", "value": 58, "unit": "%"}]}
{"smiles": "C=CC(=O)N1CCN(c2nc(=O)n(-c3c(C)ccnc3C(C)C)c3nc(-c4c(O)cccc4F)c(F)cc23)[C@@H](C)C1", "note": "[Compound A, 6-fluoro-7-(2-fluoro-6-hydroxyphenyl)-1-[4-methyl-2-(propan-2-yl)pyridin-3-yl]-4-[(2S)-2-methyl-4-(prop-2-enoyl)piperazin-1-yl]pyrido[2,3-d]pyrimidin-2(1H)-one, reference compound]", "values": [{"measurement": "Mouse loss and observations", "setting": "[1]; Compound A 30 mg/kg QD", "value": "None"}, {"measurement": "Mouse loss and observations", "setting": "[1]; Compound A 100 mg/kg QD, dosing day of removal", "value": "None"}, {"measurement": "Mean body weight change", "setting": "[1]; Compound A 10 mg/kg QD", "value": "−0.3", "unit": "%"}, {"measurement": "Compound A Plasma concentration", "setting": "[3]; 2 hours after final dose of Compound A, Compound A 30 mg/kg QD, mean ± SD, N = 4, 30 mg/kg", "value": "2.02 ± 0.31", "unit": "µM"}, {"measurement": "Compound A Plasma concentration", "setting": "[3]; 2 hours after final dose of Compound A, Compound A 100 mg/kg QD, mean ± SD, N = 4, 100 mg/kg", "value": "8.77 ± 7.25", "unit": "µM"}, {"measurement": "Formula (10b) Plasma concentration", "setting": "[3]; Compound A 30 mg/kg QD alone, BQL = below quantitation limit (3 nM)", "value": "BQL"}, {"measurement": "Formula (10b) Plasma concentration", "setting": "[3]; Compound A 100 mg/kg QD alone, BQL = below quantitation limit (3 nM)", "value": "BQL"}, {"measurement": "concentration at 2 h", "setting": "[3]; 30 mg/kg, 2 hours after final dose of Compound A, Compound A 30 mg/kg QD, mean ± SD, N = 4", "value": 2, "unit": "µM"}, {"measurement": "concentration at 2 h", "setting": "[3]; 100 mg/kg, 2 hours after final dose of Compound A, Compound A 100 mg/kg QD, mean ± SD, N = 4", "value": 8.8, "unit": "µM"}]}
{"smiles": "C=CC(=O)N1CCN(c2nc(=O)n(-c3c(C)ccnc3C(C)C)c3nc(-c4c(O)cccc4F)c(F)cc23)[C@@H](C)C1", "note": "[Sotorasib, reference compound]", "values": [{"measurement": "tolerability / impact on body weights", "setting": "[2]; sotorasib 100 mg/kg QD monotherapy, FIG. 3B", "value": "well tolerated"}]}
